In brackets after ≈: the same amount, converted by molar mass. Activity calls are given as the source filed them. The calls are words filed in the database; no cut-off is given here.
Legend:
[1] = Intrinsic clearance in human hepatocytes measured per million of cells; type: ADME, cell-based, Hepatocyte; conditions: read-out: CLH
[2] = physchem; conditions: buffer, pH 7.4
[3] = in vitro; conditions: human, liver microsomes
[4] = test system: DLD-1; test: Antiproliferative activity against human DLD-1 deficient in BRCA-2 cells measured after 7 days; type: functional, cell-based; conditions: Homo sapiens, DLD-1, 168 h
[5] = in vitro; conditions: human, Caco-2, pH 7.4
[6] = target: Poly [ADP-ribose] polymerase 2 (Homo sapiens, UniProt Q9UGN5); test: Inhibition of human recombinant N-terminal Avi-6His-TEV tagged PARP2 full length expressed in pFastBac expression system incubated for 4 hrs by fluorescence anisotropy binding assay
Chain of Poly [ADP-ribose] polymerase 2 (Q9UGN5 whole entry): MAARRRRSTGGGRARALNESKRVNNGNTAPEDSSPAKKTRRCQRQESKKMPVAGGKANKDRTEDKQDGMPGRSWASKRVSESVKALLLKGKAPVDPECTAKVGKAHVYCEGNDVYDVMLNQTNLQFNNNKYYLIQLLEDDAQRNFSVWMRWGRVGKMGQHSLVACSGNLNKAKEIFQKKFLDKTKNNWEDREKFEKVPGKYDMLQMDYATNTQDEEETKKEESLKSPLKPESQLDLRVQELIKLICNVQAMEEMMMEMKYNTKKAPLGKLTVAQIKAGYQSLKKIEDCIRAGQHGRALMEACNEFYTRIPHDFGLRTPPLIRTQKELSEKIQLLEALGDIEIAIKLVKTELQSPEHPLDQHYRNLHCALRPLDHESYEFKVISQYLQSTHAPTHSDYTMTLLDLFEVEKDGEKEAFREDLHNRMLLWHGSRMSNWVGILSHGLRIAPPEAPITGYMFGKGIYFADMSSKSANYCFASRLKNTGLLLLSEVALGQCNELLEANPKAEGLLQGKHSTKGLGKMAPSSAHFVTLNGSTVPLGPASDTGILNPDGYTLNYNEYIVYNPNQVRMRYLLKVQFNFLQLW

[7] = Aqueous solubility of the compound at pH 7.4; type: physicochemical; conditions: buffer
[8] = target: Voltage-gated inwardly rectifying potassium channel KCNH2 (Homo sapiens, UniProt Q12809); test: Inhibition of human ERG; type: toxicity
Chain of Voltage-gated inwardly rectifying potassium channel KCNH2 (Q12809 whole entry): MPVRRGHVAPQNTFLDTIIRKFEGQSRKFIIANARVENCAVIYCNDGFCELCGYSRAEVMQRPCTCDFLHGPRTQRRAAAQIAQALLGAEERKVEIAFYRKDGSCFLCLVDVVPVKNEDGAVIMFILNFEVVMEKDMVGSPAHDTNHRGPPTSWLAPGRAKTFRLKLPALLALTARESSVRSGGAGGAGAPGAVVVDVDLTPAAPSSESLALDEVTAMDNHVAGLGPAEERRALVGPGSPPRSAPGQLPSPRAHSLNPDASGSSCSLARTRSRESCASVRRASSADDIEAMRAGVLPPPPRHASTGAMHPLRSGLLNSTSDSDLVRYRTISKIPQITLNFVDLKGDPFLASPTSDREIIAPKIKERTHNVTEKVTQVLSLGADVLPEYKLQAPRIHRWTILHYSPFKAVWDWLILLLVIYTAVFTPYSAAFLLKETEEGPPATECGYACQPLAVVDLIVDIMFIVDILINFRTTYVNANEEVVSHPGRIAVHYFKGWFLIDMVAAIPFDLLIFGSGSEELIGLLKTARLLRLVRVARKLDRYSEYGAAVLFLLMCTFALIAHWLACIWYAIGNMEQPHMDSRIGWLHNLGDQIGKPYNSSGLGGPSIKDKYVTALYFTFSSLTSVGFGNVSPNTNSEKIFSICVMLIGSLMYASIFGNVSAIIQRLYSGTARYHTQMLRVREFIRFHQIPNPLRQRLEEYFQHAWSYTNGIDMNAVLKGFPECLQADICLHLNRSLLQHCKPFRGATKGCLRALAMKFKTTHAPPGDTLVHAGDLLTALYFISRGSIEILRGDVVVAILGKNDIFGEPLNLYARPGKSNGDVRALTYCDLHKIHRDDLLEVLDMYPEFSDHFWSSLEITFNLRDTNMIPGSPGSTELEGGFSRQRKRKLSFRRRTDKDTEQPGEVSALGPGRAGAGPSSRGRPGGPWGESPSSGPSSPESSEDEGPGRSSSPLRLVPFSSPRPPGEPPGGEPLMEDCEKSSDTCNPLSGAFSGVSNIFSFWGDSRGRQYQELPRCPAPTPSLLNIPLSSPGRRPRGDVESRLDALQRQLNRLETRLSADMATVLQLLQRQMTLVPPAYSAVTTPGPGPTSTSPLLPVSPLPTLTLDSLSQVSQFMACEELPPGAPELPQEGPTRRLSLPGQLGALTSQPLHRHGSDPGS

[9] = target: Poly [ADP-ribose] polymerase 1 (Homo sapiens, UniProt P09874)
Chain of Poly [ADP-ribose] polymerase 1 (P09874 whole entry): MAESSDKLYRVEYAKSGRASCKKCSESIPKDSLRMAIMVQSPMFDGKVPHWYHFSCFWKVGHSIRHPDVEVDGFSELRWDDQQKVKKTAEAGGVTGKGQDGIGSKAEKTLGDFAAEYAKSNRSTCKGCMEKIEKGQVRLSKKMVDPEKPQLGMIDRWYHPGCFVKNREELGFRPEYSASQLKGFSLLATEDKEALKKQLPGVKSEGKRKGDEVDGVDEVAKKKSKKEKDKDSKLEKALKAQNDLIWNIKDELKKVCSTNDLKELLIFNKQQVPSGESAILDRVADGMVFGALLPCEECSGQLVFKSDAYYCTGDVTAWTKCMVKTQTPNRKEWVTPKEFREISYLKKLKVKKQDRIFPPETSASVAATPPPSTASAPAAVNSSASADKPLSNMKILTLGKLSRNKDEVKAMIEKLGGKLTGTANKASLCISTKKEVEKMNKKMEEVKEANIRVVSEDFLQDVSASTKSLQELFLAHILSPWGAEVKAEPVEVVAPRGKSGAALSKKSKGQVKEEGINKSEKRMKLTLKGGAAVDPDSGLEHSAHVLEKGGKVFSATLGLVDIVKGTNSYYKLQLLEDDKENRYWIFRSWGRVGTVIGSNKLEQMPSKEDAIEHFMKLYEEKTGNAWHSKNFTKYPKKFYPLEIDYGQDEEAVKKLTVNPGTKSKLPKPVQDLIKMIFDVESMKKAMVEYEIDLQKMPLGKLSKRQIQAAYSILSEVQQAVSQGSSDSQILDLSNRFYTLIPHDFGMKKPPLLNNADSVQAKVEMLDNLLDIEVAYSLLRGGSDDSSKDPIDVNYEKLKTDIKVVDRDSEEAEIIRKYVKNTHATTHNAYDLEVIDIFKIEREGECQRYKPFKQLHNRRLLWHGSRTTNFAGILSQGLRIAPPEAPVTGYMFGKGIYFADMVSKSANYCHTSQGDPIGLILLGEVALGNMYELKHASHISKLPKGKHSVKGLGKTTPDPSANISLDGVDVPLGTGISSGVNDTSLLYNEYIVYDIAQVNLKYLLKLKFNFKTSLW

[10] = Antitumor activity against patient derived explant HBCx-17 cells xenografted in mouse assessed as tumor regression administered daily at 100 mg/kg, po for 25 days relative to control; type: functional, Homo sapiens; conditions: time 25 day
[11] = target: Protein mono-ADP-ribosyltransferase PARP3 (Homo sapiens) (UniProt Q9Y6F1); test: Binding affinity to PARP3 (unknown origin) assessed as apparent dissociation constant
Chain of Protein mono-ADP-ribosyltransferase PARP3 (Homo sapiens) (Q9Y6F1 whole entry): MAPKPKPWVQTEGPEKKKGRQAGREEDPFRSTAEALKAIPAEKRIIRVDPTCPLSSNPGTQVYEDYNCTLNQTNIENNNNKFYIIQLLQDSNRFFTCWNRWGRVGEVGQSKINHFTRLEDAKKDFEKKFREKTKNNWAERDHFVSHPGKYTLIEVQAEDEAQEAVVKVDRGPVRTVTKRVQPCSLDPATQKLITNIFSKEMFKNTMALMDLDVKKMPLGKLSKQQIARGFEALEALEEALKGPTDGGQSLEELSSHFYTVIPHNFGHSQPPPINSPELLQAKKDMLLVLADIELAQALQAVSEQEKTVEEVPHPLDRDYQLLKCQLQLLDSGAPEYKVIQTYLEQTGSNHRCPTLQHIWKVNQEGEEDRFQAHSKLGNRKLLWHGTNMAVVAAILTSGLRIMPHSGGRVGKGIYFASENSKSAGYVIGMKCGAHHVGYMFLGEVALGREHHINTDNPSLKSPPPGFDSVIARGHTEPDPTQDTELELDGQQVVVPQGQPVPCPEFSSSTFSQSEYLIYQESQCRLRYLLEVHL

[12] = target: Protein mono-ADP-ribosyltransferase PARP16 (Homo sapiens, UniProt Q8N5Y8); test: Binding affinity to PARP16 (unknown origin) assessed as apparent dissociation constant; conditions: read-out: Kd(app)
Chain of Protein mono-ADP-ribosyltransferase PARP16 (Q8N5Y8 whole entry): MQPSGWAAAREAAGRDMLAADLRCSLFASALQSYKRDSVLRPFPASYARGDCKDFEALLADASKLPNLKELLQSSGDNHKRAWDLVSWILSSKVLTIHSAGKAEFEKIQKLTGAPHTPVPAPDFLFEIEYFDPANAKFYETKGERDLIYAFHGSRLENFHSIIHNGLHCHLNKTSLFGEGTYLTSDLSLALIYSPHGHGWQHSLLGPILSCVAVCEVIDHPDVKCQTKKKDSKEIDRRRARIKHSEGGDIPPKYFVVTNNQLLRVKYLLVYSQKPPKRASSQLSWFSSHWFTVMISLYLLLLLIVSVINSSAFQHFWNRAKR

[13] = target: Protein mono-ADP-ribosyltransferase PARP9 (Homo sapiens, UniProt Q8IXQ6)
[14] = target: Protein mono-ADP-ribosyltransferase PARP11 (Homo sapiens, UniProt Q9NR21)
[15] = target: T1, Protein mono-ADP-ribosyltransferase PARP8 (Homo sapiens) (UniProt Q8N3A8)
T1 sequence (whole entry): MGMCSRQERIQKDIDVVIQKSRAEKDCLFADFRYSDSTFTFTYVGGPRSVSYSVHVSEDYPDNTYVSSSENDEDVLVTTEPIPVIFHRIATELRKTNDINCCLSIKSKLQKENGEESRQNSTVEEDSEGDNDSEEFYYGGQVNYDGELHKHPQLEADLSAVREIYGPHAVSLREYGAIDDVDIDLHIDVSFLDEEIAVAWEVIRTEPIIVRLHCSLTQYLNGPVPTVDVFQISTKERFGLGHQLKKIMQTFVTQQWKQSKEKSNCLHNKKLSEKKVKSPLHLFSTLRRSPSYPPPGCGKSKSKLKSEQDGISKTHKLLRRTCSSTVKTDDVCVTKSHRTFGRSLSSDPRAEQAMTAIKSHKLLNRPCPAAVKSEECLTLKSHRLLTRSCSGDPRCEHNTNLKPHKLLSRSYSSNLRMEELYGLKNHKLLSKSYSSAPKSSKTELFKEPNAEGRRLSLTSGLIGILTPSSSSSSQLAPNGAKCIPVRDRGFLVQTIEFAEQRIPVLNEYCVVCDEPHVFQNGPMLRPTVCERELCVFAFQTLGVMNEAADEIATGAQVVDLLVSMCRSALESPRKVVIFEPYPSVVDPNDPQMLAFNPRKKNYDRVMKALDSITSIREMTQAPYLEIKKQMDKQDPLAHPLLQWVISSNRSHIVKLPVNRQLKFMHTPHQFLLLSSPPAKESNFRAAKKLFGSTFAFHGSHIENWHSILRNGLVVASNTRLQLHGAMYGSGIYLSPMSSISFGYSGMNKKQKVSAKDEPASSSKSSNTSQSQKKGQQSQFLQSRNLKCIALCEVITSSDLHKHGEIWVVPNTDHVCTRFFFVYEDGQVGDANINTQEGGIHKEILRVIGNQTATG

[16] = target: Poly [ADP-ribose] polymerase tankyrase-1 (Homo sapiens) (UniProt O95271); test: Binding affinity to PARP5a (unknown origin) assessed as apparent dissociation constant
Chain of Poly [ADP-ribose] polymerase tankyrase-1 (Homo sapiens) (O95271 whole entry): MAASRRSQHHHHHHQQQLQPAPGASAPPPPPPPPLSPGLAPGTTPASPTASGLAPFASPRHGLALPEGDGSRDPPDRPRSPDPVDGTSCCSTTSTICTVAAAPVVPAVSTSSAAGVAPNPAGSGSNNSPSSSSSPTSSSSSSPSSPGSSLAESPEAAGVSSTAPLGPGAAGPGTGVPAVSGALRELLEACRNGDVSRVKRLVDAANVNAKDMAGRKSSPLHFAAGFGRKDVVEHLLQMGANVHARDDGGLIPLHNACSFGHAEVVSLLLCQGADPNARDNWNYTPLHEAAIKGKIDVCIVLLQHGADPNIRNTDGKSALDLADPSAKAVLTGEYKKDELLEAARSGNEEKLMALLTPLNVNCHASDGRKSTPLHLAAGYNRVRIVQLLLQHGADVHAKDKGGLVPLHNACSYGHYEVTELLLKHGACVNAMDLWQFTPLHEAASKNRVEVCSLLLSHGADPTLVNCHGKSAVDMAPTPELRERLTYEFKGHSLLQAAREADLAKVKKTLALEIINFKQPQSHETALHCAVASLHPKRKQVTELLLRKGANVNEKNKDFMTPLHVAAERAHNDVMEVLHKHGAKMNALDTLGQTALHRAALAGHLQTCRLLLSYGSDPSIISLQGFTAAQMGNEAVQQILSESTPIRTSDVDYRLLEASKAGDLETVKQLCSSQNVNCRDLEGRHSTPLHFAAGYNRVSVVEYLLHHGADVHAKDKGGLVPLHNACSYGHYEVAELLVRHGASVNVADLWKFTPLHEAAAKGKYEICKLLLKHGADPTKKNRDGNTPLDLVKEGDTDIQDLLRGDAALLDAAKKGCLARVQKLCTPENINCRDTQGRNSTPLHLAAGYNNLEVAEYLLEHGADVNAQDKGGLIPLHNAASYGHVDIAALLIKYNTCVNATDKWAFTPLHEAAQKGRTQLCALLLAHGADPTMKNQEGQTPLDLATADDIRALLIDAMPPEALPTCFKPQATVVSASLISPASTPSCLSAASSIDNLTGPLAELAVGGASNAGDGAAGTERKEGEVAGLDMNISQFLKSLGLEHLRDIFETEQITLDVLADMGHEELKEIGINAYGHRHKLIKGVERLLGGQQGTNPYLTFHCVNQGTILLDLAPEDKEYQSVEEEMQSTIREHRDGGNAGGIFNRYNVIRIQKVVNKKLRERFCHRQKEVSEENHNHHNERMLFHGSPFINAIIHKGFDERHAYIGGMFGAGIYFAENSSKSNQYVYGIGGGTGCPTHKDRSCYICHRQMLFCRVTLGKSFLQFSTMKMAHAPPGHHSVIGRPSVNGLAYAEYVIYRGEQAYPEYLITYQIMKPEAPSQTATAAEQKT

Structure (SMILES)	hepatocyte CLint [1]	logD [2]	microsomal CLint [3]	IC50 [4]	efflux ratio [5]	IC50 [6]	solubility [7]	IC50 [8]	IC50 [9]	Activity [10]	Kd(app) [11]	Kd [12]	Kd(app) [13]	Kd [14]	Kd(app) [15]	Kd(app) [16]
CCc1nc2ccc(CN3CCN(c4ccc(C(=O)NC)nc4)CC3)cc2[nH]c1=O	1.9 µL/min/1e6 cells	2.4	7 µL/min/mg	4 nM	1	4900 nM	12 µM (≈ 4.88 µg/mL)	–	–	–	–	–	–	–	–	–
Cc1cnc(N2CCN(Cc3ccc4c5c(c(=O)[nH]c4c3)CCCN5)CC2)n1C	–	2.2	15 µL/min/mg	52 nM	3.6	1100 nM	136 µM (≈ 53.4 µg/mL)	30000 nM	51 nM	–	–	–	–	–	–	–
O=c1[nH]c(CCCN2CC=C(c3ccc(F)cc3)CC2)nc2c(Cl)cccc12	–	3.8	35 µL/min/mg	> 23000 nM	–	20000 nM	56 µM (≈ 22.3 µg/mL)	2600 nM	65 nM	–	–	–	–	–	–	–
CCc1cc2ccc(CN3CCN(c4ccc(C(=O)NC)nn4)CC3)cc2[nH]c1=O	–	2.4	14 µL/min/mg	294 nM	1.5	7400 nM	30 µM (≈ 12.2 µg/mL)	> 40000 nM	4 nM	–	–	–	–	–	–	–
Cc1cnc(N2CCN(Cc3ccc4c5c(c(=O)[nH]c4c3)COCC5)CC2)n1C	–	1.9	8 µL/min/mg	–	10	6600 nM	158 µM (≈ 62.2 µg/mL)	> 40000 nM	38 nM	–	–	–	–	–	–	–
O=C(c1cc(Cc2n[nH]c(=O)c3ccccc23)ccc1F)N1CCN(C(=O)C2CC2)CC1 [OLAPARIB]	–	–	–	42 nM	–	–	–	–	–	81%	–	–	–	–	–	–
NC(=O)c1cccc2cn(-c3ccc([C@@H]4CCCNC4)cc3)nc12 [NIRAPARIB]	–	–	–	149 nM	–	–	–	–	–	–	Active	> 10000 nM	Active	> 10000 nM	Active	Active
CCc1cc2ccc(CN3CCN(c4ccc(C(=O)NC)cc4)CC3)cc2[nH]c1=O	–	3	11 µL/min/mg	7 nM	–	3900 nM	< 0.25 µM	8300 nM	–	–	–	–	–	–	–	–
Cc1cnc(N2CCN(Cc3ccc4c(c3)[nH]c(=O)c3cccnc34)CC2)n1C	–	2.5	30 µL/min/mg	15 nM	1.3	9100 nM	15 µM (≈ 5.83 µg/mL)	11000 nM	30 nM	–	–	–	–	–	–	–
Cc1cnc(N2CCN(Cc3ccc4c5c(c(=O)[nH]c4c3)CCCC5)CC2)n1C	–	3.2	57 µL/min/mg	–	–	490 nM	46 µM (≈ 18 µg/mL)	3800 nM	–	–	–	–	–	–	–	–
CCc1cc2ccc(CN3CCN(c4ccc(C(=O)NC)nc4)CC3)cc2[nH]c1=O	–	2.8	17 µL/min/mg	3 nM	0.7	1100 nM	9 µM (≈ 3.65 µg/mL)	21000 nM	5 nM	–	–	–	–	–	–	–
Cc1cnc(N2CCN(Cc3ccc4c(c3)[nH]c(=O)c3ncccc34)CC2)n1C	–	1.7	9 µL/min/mg	121 nM	–	28000 nM	383 µM (≈ 149 µg/mL)	> 40000 nM	–	–	–	–	–	–	–	–
